From article PMC4549708, “Inhibition of neuraminidase by Ganoderma triterpenoids and implications for neuraminidase inhibitor design” (Scientific Reports, 2015)

Key:
NA (H3N2, E119V) = type: biochemical, Influenza A virus A/Babol/36/2005(H3N2)(E119V); details: 200 µM
H1N1 (A/HA-58pdm-TR) = assay: microbe, parasite or virus in culture; type: cell-based, oseltamivir-resistant strain; details: Influenza A virus, H1N1, MDCK
NA (H1N1, N295S) = type: biochemical, Influenza A virus A/California/04/2009(H1N1)(N295S); details: 200 µM

| Compound | Inhibition rate (%) NA(H3N2, E119V) (NA (H3N2, E119V)) [%] | IC50 (H1N1 (A/HA-58pdm-TR)) [µM] | Inhibition rate (%) NA(H1N1, N295S) (NA (H1N1, N295S)) [%] |
| --- | --- | --- | --- |
| CC(=O)O[C@H]1C[C@H]([C@H](C)CC/C=C(\C)C(=O)O)[C@@]2(C)CC=C3C(=CC[C@H]4C(C)(C)C(=O)CC[C@]34C)[C@]12C [Compound 1, Ganoderic acid T-Q] | 55.4 ± 4.1 | – | – |
| C/C(=C\CC[C@@H](C)[C@H]1C[C@H](O)[C@@]2(C)C3=CC[C@H]4C(C)(C)C(=O)CC[C@]4(C)C3=CC[C@]12C)C(=O)O [Compound 2, Ganoderic acid TR] | 59.2 ± 1.9 | 245 | – |
| CC(=O)O[C@H]1C[C@H]([C@H](C)CC/C=C(\C)C(=O)O)[C@@]2(C)CC=C3C(=CC[C@H]4C(C)(C)[C@@H](O)CC[C@]34C)[C@]12C [Compound 3, Ganoderic acid T-N] | 43.6 ± 1.2 | – | 27.5 ± 1.4 |
| C/C(=C/CC[C@@H](C)[C@H]1CC[C@@]2(C)C3=CC[C@H]4C(C)(C)C(=O)CC[C@]4(C)C3=CC[C@]12C)C(=O)O [Compound 4, Ganoderic acid Sz] | 22.5 ± 0.3 | – | 29.3 ± 5.1 |
| C/C(=C/CC[C@@H](C)[C@H]1CC[C@@]2(C)C3=CC[C@H]4C(C)(C)C(=O)CC[C@]4(C)C3=CC[C@]12C)C(=O)O [Compound 5, Ganoderic acid S] | 44.9 ± 3.2 | – | 34.1 ± 2.2 |
| C/C(=C\CC[C@@H](C)[C@H]1CC[C@@]2(C)C3=CC[C@H]4C(C)(C)[C@@H](O)CC[C@]4(C)C3=CC[C@]12C)C(=O)O [Compound 6, Ganoderic acid Y] | 23.2 ± 3.4 | – | 16.9 ± 2.8 |
| C[C@H](CC(=O)C[C@@H](C)[C@H]1C[C@H](O)[C@@]2(C)C3=C(C(=O)C[C@]12C)[C@@]1(C)CCC(=O)C(C)(C)[C@@H]1C[C@@H]3O)C(=O)O [Compound 7, Ganoderic acid A] | 32.1 ± 2.7 | – | 15.3 ± 1.8 |
| C/C(=C\C(=O)CC(C)C(=O)O)[C@H]1C[C@H](O)[C@@]2(C)C3=C(C(=O)C[C@]12C)[C@@]1(C)CCC(=O)C(C)(C)[C@@H]1C[C@@H]3O (stereo partly shown) [Compound 8, Ganoderenic acid A] | 29.1 ± 2.3 | – | 12.4 ± 1.8 |
| C[C@H](CC(=O)C[C@@H](C)[C@H]1C[C@H](O)[C@@]2(C)C3=C(C(=O)C[C@]12C)[C@@]1(C)CC[C@H](O)C(C)(C)[C@@H]1C[C@@H]3O)C(=O)O [Compound 9, Ganoderic acid C2] | 45.4 ± 1.1 | – | 13.7 ± 2.4 |
| CC(CC(=O)C[C@@H](C)[C@H]1CC(=O)[C@@]2(C)C3=C(C(=O)C[C@]12C)[C@@]1(C)CC[C@H](O)C(C)(C)[C@@H]1CC3=O)C(=O)O (stereo partly shown) [Compound 10, Ganoderic acid AM1] | 31.3 ± 3.2 | – | 9.3 ± 1.6 |
| CC(=O)O[C@@H]1C(=O)C2=C([C@@H](O)C[C@H]3C(C)(C)[C@@H](O)CC[C@]23C)[C@]2(C)C(=O)C[C@H]([C@H](C)CC(=O)CC(C)C(=O)O)[C@@]12C (stereo partly shown) [Compound 11, Ganoderic acid K] | 33.5 ± 2.4 | – | 14.2 ± 2.9 |
| C/C(=C\C(=O)CC(C)C(=O)O)[C@H]1CC(=O)[C@@]2(C)C3=C(C(=O)C[C@]12C)[C@@]1(C)CC[C@H](O)C(C)(C)[C@@H]1CC3=O (stereo partly shown) [Compound 12, Ganoderenic acid H] | 38.6 ± 2.3 | – | 12.8 ± 5.1 |
| CC(=O)O[C@@H]1C(=O)C2=C(C(=O)C[C@H]3C(C)(C)[C@@H](O)CC[C@]23C)[C@]2(C)C(=O)C[C@H]([C@H](C)CC(=O)CC(C)C(=O)O)[C@@]12C (stereo partly shown) [Compound 13, Ganoderic acid H] | 27.9 ± 1.5 | – | 16.9 ± 2.4 |
| CC(CC(=O)C[C@@H](C)[C@H]1CC(=O)[C@@]2(C)C3=C(C(=O)C[C@]12C)[C@@]1(C)CC[C@H](O)C(C)(C)[C@@H]1C[C@@H]3O)C(=O)O (stereo partly shown) [Compound 14, Ganoderic acid B] | 38.7 ± 1.6 | – | 12.8 ± 1.4 |
| C/C(=C\C(=O)CC(C)C(=O)O)[C@H]1CC(=O)[C@@]2(C)C3=C(C(=O)C[C@]12C)[C@@]1(C)CCC(=O)C(C)(C)[C@@H]1CC3=O (stereo partly shown) [Compound 15, Ganoderenic acid F] | 24.2 ± 3.9 | – | 24.4 ± 4.4 |
| C/C(=C\C(=O)CC(C)C(=O)O)C1CC(O)C2(C)C3=C(C(=O)CC12C)C1(C)CCC(O)C(C)(C)C1CC3O (stereo not shown) [Compound 16, Ganoderenic acid C] | 37.5 ± 2.4 | – | 13.2 ± 2.2 |

| Compound | Inhibition rate (%) NA(H3N2, E119V) (NA (H3N2, E119V)) [%] | IC50 (H1N1 (A/HA-58pdm-TR)) [µM] | Inhibition rate (%) NA(H1N1, N295S) (NA (H1N1, N295S)) [%] |
| --- | --- | --- | --- |
| CC(CC(=O)C[C@@H](C)[C@H]1CC(=O)[C@@]2(C)C3=C(C(=O)[C@@H](O)[C@]12C)[C@@]1(C)CC[C@H](O)C(C)(C)[C@@H]1CC3=O)C(=O)O (stereo partly shown) [Compound 18, Ganoderic acid C6] | 20.7 ± 0.5 | – | 17.6 ± 3.5 |
| C[C@H](CC(=O)C[C@@H](C)[C@H]1CC(=O)[C@@]2(C)C3=C(C(=O)C[C@]12C)[C@@]1(C)CCC(=O)C(C)(C)[C@@H]1C[C@@H]3O)C(=O)O [Compound 19, Ganoderic acid C1] | 32.0 ± 3.4 | – | 14.7 ± 3.9 |
| C/C(=C\CC[C@@H](C)[C@H]1CC[C@@]2(C)C3=C(CC[C@]12C)[C@@]1(C)CCC(=O)C(C)(C)[C@@H]1CC3=O)C(=O)O [Compound 20, Ganoderic acid DM] | 28.8 ± 0.5 | – | 19.0 ± 2.4 |
| CC(CC(=O)C[C@@H](C)[C@H]1C[C@H](O)[C@@]2(C)C3=C(C(=O)C[C@]12C)[C@@]1(C)CCC(=O)C(C)(C)[C@@H]1CC3)C(=O)O (stereo partly shown) [Compound 21, Ganolucidic acid A] | 22.9 ± 3.8 | – | 21.0 ± 4.2 |
| C/C(=C\[C@@H](O)C[C@@H](C)[C@H]1CC(=O)[C@@]2(C)C3=C(C(=O)C[C@]12C)[C@@]1(C)CC[C@H](O)C(C)(C)[C@@H]1CC3=O)C(=O)O [Compound 22, Ganoderic acid Zeta] | 18.7 ± 4.5 | – | 25.5 ± 4.9 |
| C/C(=C\[C@@H](O)C[C@@H](C)[C@H]1CC(=O)[C@@]2(C)C3=C(C(=O)C[C@]12C)[C@@]1(C)CCC(=O)C(C)(C)[C@@H]1C[C@@H]3O)C(=O)O [Compound 23, Ganoderic acid LM2] | 12.9 ± 1.0 | – | 15.4 ± 0.6 |
| CC(=O)O[C@@H]1C(=O)C2=C(C(=O)C[C@H]3C(C)(C)C(=O)CC[C@]23C)[C@]2(C)C(=O)C[C@H]([C@H](C)CC(=O)CC(C)C(=O)O)[C@@]12C (stereo partly shown) [Compound 24, Ganoderic acid F] | 19.9 ± 2.6 | – | 17.6 ± 2.0 |
| C/C(=C\CC[C@@H](C)[C@H]1CC[C@@]2(C)C3=CC[C@H]4C(C)(C)C(=O)CC[C@]4(C)C3=CC[C@]12C)CO [Compound 25, Ganoderol A] | 18.2 ± 2.7 | – | 22.6 ± 1.8 |
| C/C(=C\CC[C@@H](C)[C@H]1CC[C@@]2(C)C3=CC[C@H]4C(C)(C)[C@@H](O)CC[C@]4(C)C3=CC[C@]12C)CO [Compound 26, Ganoderol B] | 19.1 ± 6.1 | – | 19.9 ± 1.1 |
| C[C@H](CCC=C(CO)CO)[C@H]1CC[C@@]2(C)C3=CC[C@H]4C(C)(C)C(=O)CC[C@]4(C)C3=CC[C@]12C [Compound 27, Ganoderiol F] | 16.8 ± 1.2 | – | 9.5 ± 4.5 |
| C[C@H](CC[C@H](O)C(C)(C)O)[C@H]1CC[C@@]2(C)C3=CC[C@H]4C(C)(C)C(=O)CC[C@]4(C)C3=CC[C@]12C [Compound 28, Ganodermanondiol] | 34.2 ± 0.9 | – | 19.0 ± 4.2 |
| C[C@H](CC[C@H](O)[C@](C)(O)CO)[C@H]1CC[C@@]2(C)C3=CC[C@H]4C(C)(C)C(=O)CC[C@]4(C)C3=CC[C@]12C [Compound 29, Ganodermanontriol] | 12.2 ± 3.4 | – | 7.9 ± 3.2 |
| C/C(C=O)=C\CC[C@@H](C)[C@H]1CC[C@@]2(C)C3=CC[C@H]4C(C)(C)[C@@H](O)CC[C@]4(C)C3=CC[C@]12C [Compound 30, Lucialdehyde A] | 25.9 ± 8.1 | – | 5.8 ± 2.4 |
| C/C(C=O)=C\CC[C@@H](C)[C@H]1CC[C@@]2(C)C3=C(CC[C@]12C)[C@@]1(C)CCC(=O)C(C)(C)[C@@H]1CC3=O [Compound 31, Lucialdehyde B] | 43.3 ± 1.0 | – | 11.2 ± 1.3 |
| Ganoderenic acid D [Compound 17] | 32.2 ± 3.4 | – | 13.8 ± 3.1 |
